Laboratory results taken from ChEMBL document CHEMBL4402589, “Discovery of a Potent and Selective NF-κB-Inducing Kinase (NIK) Inhibitor That Has Anti-inflammatory Effects in Vitro and in Vivo” (J Med Chem, 2020).
Calls of active or inactive are those of the source. The calls are words filed in the database; no cut-off is given here.

Tests used:
[1] = target: T1, Mitogen-activated protein kinase kinase kinase 14 (Homo sapiens, UniProt Q99558); assay: Inhibition of recombinant human N-terminal GST-tagged NIK (318 to 947 residues) expressed in baculovirus infected Sf9 cells using ultrapure ATP as substrate measured after 1 hr by ADP-glo assay
T1 sequence (Q99558 whole entry, the tested form may be a part): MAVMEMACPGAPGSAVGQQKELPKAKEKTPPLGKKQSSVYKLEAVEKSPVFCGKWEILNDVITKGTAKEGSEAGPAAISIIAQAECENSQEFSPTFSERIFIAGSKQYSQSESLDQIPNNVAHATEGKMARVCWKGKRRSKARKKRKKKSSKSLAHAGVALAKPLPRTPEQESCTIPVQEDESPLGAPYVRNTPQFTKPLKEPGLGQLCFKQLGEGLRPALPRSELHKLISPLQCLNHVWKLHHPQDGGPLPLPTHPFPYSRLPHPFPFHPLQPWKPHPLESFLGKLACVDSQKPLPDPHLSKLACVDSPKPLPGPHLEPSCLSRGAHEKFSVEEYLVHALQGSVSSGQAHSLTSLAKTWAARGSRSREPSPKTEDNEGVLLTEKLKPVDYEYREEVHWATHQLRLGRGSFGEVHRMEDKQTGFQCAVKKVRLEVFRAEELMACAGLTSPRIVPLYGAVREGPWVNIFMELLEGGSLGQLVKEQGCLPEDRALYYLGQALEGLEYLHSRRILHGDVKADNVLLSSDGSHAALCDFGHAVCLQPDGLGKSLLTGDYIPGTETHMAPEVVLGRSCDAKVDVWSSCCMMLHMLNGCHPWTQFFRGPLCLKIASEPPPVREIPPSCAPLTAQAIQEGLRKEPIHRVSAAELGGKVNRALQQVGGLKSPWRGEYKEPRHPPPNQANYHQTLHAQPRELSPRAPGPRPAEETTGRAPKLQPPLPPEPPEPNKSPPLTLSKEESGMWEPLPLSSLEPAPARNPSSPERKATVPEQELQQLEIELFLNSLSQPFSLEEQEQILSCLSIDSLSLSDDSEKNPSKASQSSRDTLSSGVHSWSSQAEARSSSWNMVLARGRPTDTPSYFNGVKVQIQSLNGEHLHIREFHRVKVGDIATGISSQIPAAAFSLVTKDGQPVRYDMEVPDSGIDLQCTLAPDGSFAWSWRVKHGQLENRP

[2] = Stability of the compound in pH 1 aqueous solution; assay type: physicochemical; details: buffer
[3] = Oral bioavailability in ICR mouse; assay type: ADME, organism-based; details: in vivo
[4] = target: Mitogen-activated protein kinase kinase kinase 14 (Mus musculus) (UniProt Q9WUL6); assay: Inhibition of NIK in NIK adenovirus infected C57BL/6 mouse primary hepatocytes assessed as reduction in CXCL5 mRNA expression measured after 16 hrs by SYBR staining based RT-qPCR analysis
Mitogen-activated protein kinase kinase kinase 14 (Mus musculus), sequence (Q9WUL6 whole entry, the tested form may be a part): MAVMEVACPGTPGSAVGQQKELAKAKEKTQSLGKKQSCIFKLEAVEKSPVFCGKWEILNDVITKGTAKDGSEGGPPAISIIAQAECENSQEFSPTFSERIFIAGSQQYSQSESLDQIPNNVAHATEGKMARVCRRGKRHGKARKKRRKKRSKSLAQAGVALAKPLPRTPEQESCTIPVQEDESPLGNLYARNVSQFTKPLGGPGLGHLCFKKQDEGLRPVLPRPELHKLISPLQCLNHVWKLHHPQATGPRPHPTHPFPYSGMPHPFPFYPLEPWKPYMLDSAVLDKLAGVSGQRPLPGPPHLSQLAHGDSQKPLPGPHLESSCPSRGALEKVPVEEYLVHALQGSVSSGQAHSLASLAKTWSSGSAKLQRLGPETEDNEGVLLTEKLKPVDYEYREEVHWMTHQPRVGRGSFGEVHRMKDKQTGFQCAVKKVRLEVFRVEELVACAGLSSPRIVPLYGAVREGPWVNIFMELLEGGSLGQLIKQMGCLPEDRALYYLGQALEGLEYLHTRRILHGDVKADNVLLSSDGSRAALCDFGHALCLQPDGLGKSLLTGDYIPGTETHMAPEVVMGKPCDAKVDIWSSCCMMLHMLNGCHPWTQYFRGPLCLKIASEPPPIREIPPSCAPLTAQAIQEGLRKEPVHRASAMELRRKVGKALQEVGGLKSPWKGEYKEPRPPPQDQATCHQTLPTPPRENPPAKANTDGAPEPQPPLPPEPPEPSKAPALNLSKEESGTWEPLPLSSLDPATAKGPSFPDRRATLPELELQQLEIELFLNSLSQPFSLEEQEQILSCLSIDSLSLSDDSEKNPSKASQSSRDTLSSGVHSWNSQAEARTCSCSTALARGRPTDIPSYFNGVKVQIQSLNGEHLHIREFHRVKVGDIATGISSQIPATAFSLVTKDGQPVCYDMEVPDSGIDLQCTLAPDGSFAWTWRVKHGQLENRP

[5] = Half life in ICR mouse at 15 mg/kg, po by LC-MS/MS analysis; assay type: ADME, organism-based; details: in vivo
[6] = test system: Mus musculus; assay: (§1) Antiinflammatory activity in CCl4-induced C57BL/6 mouse model of liver injury assessed as reduction in NOS2 mRNA expression in liver at 40 mg/kg, po administered 30 mins prior to CCl4 addition followed by compound redosing at 3 hrs interval for 9 hrs and measured 12 hrs […] by SYBR staining based RT-qPCR analysis; assay type: functional, organism-based
[7] = target: Mitogen-activated protein kinase kinase kinase 14 (Mus musculus) (UniProt Q9WUL6); assay: Inhibition of NIK in NIK/p100 adenoviruses infected C57BL/6 mouse primary hepatocytes assessed as suppression of NIK-mediated proteolysis of p100 to p52 by measuring reduction in p52 level measured after 16 hrs by Western blot analysis
[8] = target: Mitogen-activated protein kinase kinase kinase 14 (Mus musculus) (UniProt Q9WUL6); assay: Inhibition of NIK in NIK adenovirus infected C57BL/6 mouse primary hepatocytes assessed as reduction in NOS2 mRNA expression measured after 16 hrs by SYBR staining based RT-qPCR analysis
[9] = test system: Hepatocyte; assay: Down regulation of NIK expression in NIK/p100 adenoviruses infected C57BL/6 mouse primary hepatocytes at 1 to 10 uM measured after 16 hrs by Western blot analysis; assay type: functional, cell-based
[10] = test system: Mus musculus; assay: as §1, with “CCL2” for “NOS2”; assay type: functional, organism-based
[11] = test system: Mus musculus; assay: as §1, with “immune cell infiltration” for “NOS2 mRNA expression”, “F4/80/DAPI” for “SYBR”, “immunofluorescence assay” for “RT-qPCR analysis”; assay type: functional, organism-based
[12] = Cmax in ICR mouse at 5 mg/kg, iv by LC-MS/MS analysis; assay type: ADME, organism-based; design: dose 5 mg/kg, route intravenous; details: in vivo
[13] = Cmax in ICR mouse at 15 mg/kg, po by LC-MS/MS analysis; assay type: ADME, organism-based; design: dose 15 mg/kg, route oral; details: in vivo
[14] = target: Mitogen-activated protein kinase kinase kinase 14 (Mus musculus) (UniProt Q9WUL6); assay: Inhibition of NIK in NIK adenovirus infected C57BL/6 mouse primary hepatocytes assessed as reduction in CCL5 mRNA expression measured after 16 hrs by SYBR staining based RT-qPCR analysis
[15] = target: T1, Mitogen-activated protein kinase kinase kinase 14; assay: Binding affinity to wild-type human partial length NIK (L318 to P947 residues) expressed in mammalian expression system by Kinomescan method
[16] = target: Mitogen-activated protein kinase kinase kinase 14 (Mus musculus) (UniProt Q9WUL6); assay: Inhibition of NIK in NIK adenovirus infected C57BL/6 mouse primary hepatocytes assessed as reduction in TNFalpha mRNA expression measured after 16 hrs by SYBR staining based RT-qPCR analysis
[17] = Apparent volume of distribution in ICR mouse at 5 mg/kg, iv by LC-MS/MS analysis; assay type: ADME, organism-based; details: in vivo, read-out: Vz
[18] = Clearance in ICR mouse at 5 mg/kg, iv by LC-MS/MS analysis; assay type: ADME, organism-based; details: in vivo
[19] = test system: Mus musculus; assay: as §1, with “CCL5” for “NOS2”; assay type: functional, organism-based
[20] = test system: Mus musculus; assay: as §1, with “TNFalpha” for “NOS2”; assay type: functional, organism-based
[21] = target: Mitogen-activated protein kinase kinase kinase 14 (Mus musculus) (UniProt Q9WUL6); assay: Inhibition of NIK in NIK adenovirus infected C57BL/6 mouse primary hepatocytes assessed as reduction in CCL2 mRNA expression measured after 16 hrs by SYBR staining based RT-qPCR analysis
[22] = test system: Mus musculus; assay: as §1, with “CXCL5” for “NOS2”; assay type: functional, organism-based
[23] = AUC (0 to t) in ICR mouse at 5 mg/kg, iv by LC-MS/MS analysis; assay type: ADME, organism-based; details: in vivo
[24] = AUC (0 to t) in ICR mouse at 15 mg/kg, po by LC-MS/MS analysis; assay type: ADME, organism-based; details: in vivo
[25] = Tmax in ICR mouse at 5 mg/kg, iv by LC-MS/MS analysis; assay type: ADME, organism-based; details: in vivo
[26] = Half life in ICR mouse at 5 mg/kg, iv by LC-MS/MS analysis; assay type: ADME, organism-based; details: in vivo
[27] = Tmax in ICR mouse at 15 mg/kg, po by LC-MS/MS analysis; assay type: ADME, organism-based; details: in vivo
[28] = Oral bioavailability in ICR mouse at 15 mg/kg by LC-MS/MS analysis; assay type: ADME, organism-based; details: in vivo
[29] = test system: Mus musculus; assay: Antiinflammatory activity in CCl4-induced C57BL/6 mouse model of liver injury assessed as reduction in serum ALT level at 40 mg/kg, po administered 30 mins prior to CCl4 addition followed by compound redosing at 3 hrs interval for 9 hrs and measured 12 hrs […]; assay type: functional, organism-based

Q: With `CC(O)(C#Cc1cc(-n2ccc3cnc(N)nc32)ccn1)c1nccs1` (stereo not drawn) as the compound, how does the IC50 [1] read?
A: 22.4 nM

Q: What about the Stability [2] of the same compound?
A: Unstable

Q: Which IC50 [1] does the source give for `CC(O)(C#Cc1cc(-n2ccc3cnc(N)nc32)c(F)cn1)c1nccs1` (stereo not drawn) here?
A: 87.3 nM

Q: What does the source list for `CC(O)(C#Cc1ccc(F)c(-c2c[nH]c3cnc(N)nc23)c1)c1nccs1` (stereo not drawn)?
A: IC50 [1]: 85.5 nM; Stability [2]: Stable

Q: For `CN1CCC(O)(C#Cc2cc(-n3ccc4ccc(N)nc43)ccn2)C1=O` (stereo not drawn), which IC50 [1] is on record?
A: 2480 nM

Q: Which IC50 [1] does the source give for `CC(O)(C#Cc1cc(-n2ccc3cnc(N)nc32)ccn1)c1cnccn1` (stereo not drawn) here?
A: 1640 nM

Q: What does the source list for `CN1CCC(O)(C#Cc2cc(-n3ccc4cnc(N)nc43)ccn2)C1=O` (stereo not drawn)?
A: IC50 [1]: 26.1 nM; bioavailability [3]: < 1%

Q: For `COc1cccc(C(C)(O)C#Cc2cccc(-c3c[nH]c4cnc(N)nc34)c2)n1` (stereo not drawn), which IC50 [1] is on record?
A: > 10000 nM

Q: For `CC(O)(C#Cc1cc(-n2ccc3cnc(N)nc32)c(F)cc1F)c1nccs1` (stereo not drawn), which IC50 [1] is on record?
A: 641 nM

Q: For `COc1nc(N)nc2c1ccn2-c1cccc(C#CC(C)(O)c2nccs2)c1` (stereo not drawn), which IC50 [1] is on record?
A: 2480 nM

Q: With `Nc1ncc2ccn(-c3ccnc(C#CC4(O)CCCCC4)c3)c2n1` as the compound, how does the IC50 [1] read?
A: 1570 nM

Q: Which IC50 [1] does the source give for `Cc1cc(C(C)(O)C#Cc2cc(-n3ccc4cnc(N)nc43)ccn2)no1` (stereo not drawn) here?
A: 120 nM

Q: Which IC50 [1] does the source give for `CC(C)(O)C#Cc1cccc(-c2c[nH]c3cnc(N)nc23)c1` here?
A: 720 nM

Q: With `CN(C)C(=O)c1ccc(-n2ccc3cnc(N)nc32)cc1C#CC(C)(O)c1nccs1` (stereo not drawn) as the compound, how does the IC50 [1] read?
A: > 10000 nM

Q: Which IC50 [1] does the source give for `CC(O)(C#Cc1cc(-n2ccc3cnc(N)nc32)ccc1F)c1nccs1` (stereo not drawn) here?
A: 204 nM

Q: For `Nc1ncc2ccn(-c3ccnc(C#CC4(O)CCCCCC4)c3)c2n1`, which IC50 [1] is on record?
A: 748 nM

Q: For `Cc1cc(C(C)(O)C#Cc2cccc(-c3c[nH]c4cnc(N)nc34)c2)no1` (stereo not drawn), which IC50 [1] is on record?
A: 290 nM

Q: Which IC50 [1] does the source give for `CC(O)(C#Cc1ccc(F)c(-n2ccc3cnc(N)nc32)c1)c1nccs1` (stereo not drawn) here?
A: 215 nM

Q: Which inhibition [4] does the source give for `C[C@@](O)(C#Cc1ccc(F)c(-c2c[nH]c3cnc(N)nc23)c1)c1nccs1` here?
A: Dose-dependent effect

Q: What about the half-life [5] of the same compound?
A: 12 h

Q: What about the Activity [6] of the same compound?
A: Active

Q: And the inhibition [7]?
A: Dose-dependent effect

Q: What about the inhibition [8] of the same compound?
A: Dose-dependent effect

Q: What about the Activity [9] of the same compound?
A: inactive

Q: And the Activity [10]?
A: Active

Q: And the Activity [11]?
A: Active

Q: And the Cmax [12]?
A: 3040 ng/mL

Q: And the Cmax [13]?
A: 510 ng/mL

Q: And the inhibition [14]?
A: Dose-dependent effect

Q: And the Kd [15]?
A: 4.9 nM

Q: What about the inhibition [16] of the same compound?
A: Dose-dependent effect

Q: And the Vd [17]?
A: 26 L/kg

Q: What about the IC50 [1] of the same compound?
A: 9.1 nM

Q: What about the clearance [18] of the same compound?
A: 92.4 mL/min/kg

Q: And the Activity [19]?
A: Active

Q: What about the Activity [20] of the same compound?
A: Active

Q: What about the inhibition [21] of the same compound?
A: Dose-dependent effect

Q: And the Activity [22]?
A: Active

Q: And the AUC(0-t) [23]?
A: 891 ng·h/mL

Q: And the AUC(0-t) [24]?
A: 348 ng·h/mL

Q: And the Tmax [25]?
A: 4.8 min

Q: What about the half-life [26] of the same compound?
A: 3.28 h

Q: What about the Tmax [27] of the same compound?
A: 0.3 h

Q: And the bioavailability [28]?
A: 13%

Q: What about the Activity [29] of the same compound?
A: Active

Q: What about the Stability [2] of the same compound?
A: Stable

Q: With `CC(O)(C#Cc1cccc(-c2c[nH]c3cnc(N)nc23)c1)c1nccs1` (stereo not drawn) as the compound, how does the IC50 [1] read?
A: 218 nM

Q: For `Nc1ncc2ccn(-c3ccnc(C#CC4(O)CCCC4)c3)c2n1`, which IC50 [1] is on record?
A: 234 nM

Q: For `Cc1ccc(-n2ccc3cnc(N)nc32)cc1C#CC(C)(O)c1nccs1` (stereo not drawn), which IC50 [1] is on record?
A: 11700 nM

Q: For `CC(O)(C#Cc1cc(-n2ccc3cnc(N)nc32)ccc1C#N)c1nccs1` (stereo not drawn), which IC50 [1] is on record?
A: 219 nM

Q: Which IC50 [1] does the source give for `CC(O)(C#Cc1cccc(-c2c[nH]c3cnc(N)nc23)c1)c1cnccn1` (stereo not drawn) here?
A: 468 nM

Q: For `COCCOc1ccc(-n2ccc3cnc(N)nc32)cc1C#CC(C)(O)c1nccs1` (stereo not drawn), which IC50 [1] is on record?
A: 25800 nM

Q: For `Nc1ncc2[nH]cc(-c3cccc(C#CC(O)c4nccs4)c3)c2n1` (stereo not drawn), which IC50 [1] is on record?
A: 6380 nM

Q: For `COc1cc(C#CC(C)(O)c2nccs2)cc(-c2c[nH]c3cnc(N)nc23)c1` (stereo not drawn), which IC50 [1] is on record?
A: 290 nM

Q: With `CC(O)(C#Cc1cc(C#N)cc(-n2ccc3cnc(N)nc32)c1)c1nccs1` (stereo not drawn) as the compound, how does the IC50 [1] read?
A: 2060 nM

Q: For `CN1CCC(O)(C#Cc2cccc(-c3c[nH]c4cnc(N)nc34)c2)C1=O` (stereo not drawn), which IC50 [1] is on record?
A: 410 nM
